Assay results published in patent US11179363B2, “Non-steroidal selective glucocorticoid receptor agonistic modulators (SEGRAMs) and uses thereof” (ASSOCIATION POUR LA RECHERCHE À L'IGBMC (ARI), priority 2017, dated 2021).

Tests used:
[1] = target: T1, glucocorticoid receptor (GR) (Mus musculus, UniProt P06537); assay: In vivo transcriptional analysis (q-RT-PCR) of the three GR functions in mouse ears; design: species or system Balb/C mice; settings: topical 18 hours, 1 nmole/cm^2
T1 construct: RNA transcripts were then extracted from mouse ears; from tissue; host or cells: ear skin of Balb/C mice (in vivo topical treatment)
T1 sequence (P06537 1-792): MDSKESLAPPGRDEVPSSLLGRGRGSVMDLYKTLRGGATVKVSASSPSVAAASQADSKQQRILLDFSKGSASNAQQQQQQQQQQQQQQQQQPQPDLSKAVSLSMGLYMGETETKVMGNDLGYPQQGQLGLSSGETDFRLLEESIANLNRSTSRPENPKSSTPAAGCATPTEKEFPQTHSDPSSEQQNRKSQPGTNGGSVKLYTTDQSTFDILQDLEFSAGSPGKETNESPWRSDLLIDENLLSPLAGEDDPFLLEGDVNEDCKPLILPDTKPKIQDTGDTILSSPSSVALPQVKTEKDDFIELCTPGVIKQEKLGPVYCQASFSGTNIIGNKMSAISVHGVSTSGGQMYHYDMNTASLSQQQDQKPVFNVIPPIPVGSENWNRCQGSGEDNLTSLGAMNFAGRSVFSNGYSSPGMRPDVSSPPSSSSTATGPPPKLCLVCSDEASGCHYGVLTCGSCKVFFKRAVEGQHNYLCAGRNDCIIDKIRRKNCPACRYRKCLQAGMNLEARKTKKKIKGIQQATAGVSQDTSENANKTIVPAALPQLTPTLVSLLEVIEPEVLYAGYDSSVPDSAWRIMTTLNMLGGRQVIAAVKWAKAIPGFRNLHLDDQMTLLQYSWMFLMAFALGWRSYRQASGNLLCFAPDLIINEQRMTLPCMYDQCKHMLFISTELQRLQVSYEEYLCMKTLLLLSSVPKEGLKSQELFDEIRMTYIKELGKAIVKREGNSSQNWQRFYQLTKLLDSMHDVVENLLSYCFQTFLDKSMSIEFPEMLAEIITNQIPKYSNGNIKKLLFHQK
Experimental: RNA transcripts were then extracted from mouse ears and the transcripts of 4 genes were analyzed by q-RT-PCR: • (i) the directly GR-transactivated gene of the mTOR inhibitor REDD1, • (ii) the GR-directly transrepressed gene of keratin 5 (K5) and • (iii) the GR-indirectly “tethered” transrepressed genes of interleukin-1β (IL-1β) and interleukin-6 (IL-6), both being activated in presence of 12-O-tetradecanoylphorbol-13-acetate (TPA). Results

[2] = tested on: experimental models of dry eye and postoperative inflammation; settings: in vivo, cited from earlier work
corneal epithelial cells = settings: in vitro; cited from earlier work

SMILES: Cc1ccc2c(NC[C@](O)(CC(C)(C)c3cc(F)cc4c3OCC4)C(F)(F)F)cccc2n1 [Mapracorat]
- GR functions induced (direct transactivation, direct transrepression, indirect tethered transrepression) [1]: induces all three GR functions
- side effects in intraocular pressure and body weight ([2]; vs dexamethasone): reduced side effects
- anti-inflammatory activity vs dexamethasone [2]: comparable
- anti-inflammatory action in corneal epithelial cells challenged with osmotic stress (corneal epithelial cells): act as an anti-inflammatory agent
